Results on 11 compounds are retold here after US10793575B2, “Oxoisoquinoline derivatives” (CARNA BIOSCIENCES, INC., priority 2016, dated 2020).

One experiment deals with BTK (Homo sapiens (Human), UniProt Q06187). As to the kind of experiment: Intracellular BTK Auto-Phosphorylation Activity Inhibition Test in Ramos cells. The following applies: test compound 0.03 μM, anti-IgM stimulation, pY223, read-out: Inhibitory Activity on BTK-phosphorization. In kind it is cell-based. The protocol: Ramos cells (2G6.4C10, ATCC No. CRL-1923) were cultured in a T75 flask containing RPMI-1640 medium (GIBCO, # A10491-01) supplemented with 10% FBS (AusGene) and 1% penicillin-streptomycin (Nacalai Tesque, Inc.) (hereinafter referred to as growth medium) in a 5% CO2 incubator.
BTK, sequence (Q06187 whole entry): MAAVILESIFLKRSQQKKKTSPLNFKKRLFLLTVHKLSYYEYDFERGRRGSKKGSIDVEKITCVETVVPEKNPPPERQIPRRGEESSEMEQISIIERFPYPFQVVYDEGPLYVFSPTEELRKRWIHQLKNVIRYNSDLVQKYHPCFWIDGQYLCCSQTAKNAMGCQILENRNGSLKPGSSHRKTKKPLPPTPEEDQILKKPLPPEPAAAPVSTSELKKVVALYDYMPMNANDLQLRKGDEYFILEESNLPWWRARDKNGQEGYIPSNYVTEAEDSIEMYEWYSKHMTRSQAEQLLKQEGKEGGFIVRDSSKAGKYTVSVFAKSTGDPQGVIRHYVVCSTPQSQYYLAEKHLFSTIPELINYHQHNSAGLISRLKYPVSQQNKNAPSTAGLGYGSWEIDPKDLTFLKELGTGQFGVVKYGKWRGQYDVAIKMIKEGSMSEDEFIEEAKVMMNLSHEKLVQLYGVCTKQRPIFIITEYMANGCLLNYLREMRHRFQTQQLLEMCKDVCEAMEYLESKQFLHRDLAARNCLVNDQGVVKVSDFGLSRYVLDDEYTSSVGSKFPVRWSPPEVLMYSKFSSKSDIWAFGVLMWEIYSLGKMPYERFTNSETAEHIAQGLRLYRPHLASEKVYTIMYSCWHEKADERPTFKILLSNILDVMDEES
The cultured Ramos cells were diluted to a cell density of 7.5×10^6 cells/mL with a serum-free RPMI-1640 (hereinafter referred to as medium) and kept at 37° C. for 45 minutes. The cell suspension was dispensed in 1 mL aliquots into 2.0 mL tubes. A 0.03 mM solution of the test substance in DMSO was diluted with the medium to make a 0.09 μM test compound solution, 500 μL of which was then added to the tubes and the incubation was conducted at 37° C. for 1 hour in the presence of the test compound at a final concentration of 0.03 μM. Thereafter, the anti-IgM antibody (Invitrogen, H15100) which had been diluted with the medium was added at a final concentration of 10 μg/mL, and the incubation was conducted at 37° C. for 10 minutes.
To the pellets obtained by recovering the cells via centrifugation, 100 μL of a lysis buffer [RIPA Buffer(×1)(Cell Signaling Technology, Inc.) supplemented with 1% Phosphatase inhibitor Cacktail 3 (Sigma Corporation, No. P0044), 1% Phosphatase inhibitor Cacktail (Nacalai Tesque, Inc., No. 07575) and 1 mM phenylmethylsulfonyl fluoride (PMSF)] was added and stirred gently and then allowed to stand for 10 minutes. The supernatant was recovered by centrifugation (15,000 rpm, 15 minutes) and the protein level was quantified. The portion was mixed with the SDS-sample buffer, allowed to react for 5 minutes at 95° C. to denature the protein, thereby obtaining a sample solution. Each 5 μL of the sample solutions was applied to each well containing a 5 to 20% gradient acrylamide gel (Nacalai Tesque, Inc., No. 13064-04) and electrophoresis was conducted. Thereafter, iBlot gel transfer system (Life Technologies Corporation) was used to transfer the proteins in the gel onto a PVDF membrane.
The PVDF membrane after transfer was blocked with 2% ECL prime blocking Reagent (GE Healthcare) and thereafter the reaction was conducted overnight at 4° C. using anti-BTK mouse antibody (BD transduction laboratory, No. 611116) or anti-phosphorylated BTK rabbit antibody (pY223, EPITOMICS, No. 2207-1) as a primary antibody. The unreacted primary antibody was washed with a TBST buffer (10 mM Tris-HCl (pH 7.5), 150 mM NaCl, 0.1% Tween 20) and then the reaction was conducted for 1 hour at room temperature in a TBST buffer supplemented with 2% ECL prime blocking Reagent using HRP-labeled anti-mouse IgG horse antibody (Cell Signaling Technology, No. 7076) or anti-rabbit IgG goat antibody (Cell Signaling Technology, No. 7074) as a secondary antibody. After washing the unreacted secondary antibody with the TBST buffer, Chemi-Lumi One Super (Nacalai Tesque, Inc.) was used to conduct a reaction in accordance with the attached protocol, and then the respective bands as chemiluminescences were detected with a CCD camera (GE Healthcare ImageQuant LAS 500). […] Each phosphorylated BTK band was corrected based on the total BTK.
The intracellular BTK autophosphorylation inhibiting activity was indicated with the mark “***” when 90% or more, with the mark “**” when 70% or more and less than 90%, and with the mark “*” when 50% or more and less than 70%.

The target in a further experiment is dephosphorylated BTK (Homo sapiens (Human), UniProt Q06187). In words: BTK Activity Inhibition Test (mobility shift assay). As to conditions: 200 μM ATP, read-out: Inhibitory Activity on BTK. In kind it is biochemical. In a few lines:
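Biotinylated human BTK was dephosphorylated with λ phosphatase and assayed by mobility shift, with FITC-SRCtide as substrate in 20 mM HEPES pH 7.5, 0.01% Triton X-100 and 2 mM DTT. The substrate mix held 4 μM substrate, 20 mM MgCl2 and 200 μM ATP, and the enzyme solution held 0.46 nM BTK (stock levels, not final). After 2 h at room temperature, % inhibition was derived from P/(P+S) and IC50 by log-concentration regression.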

For experiment [1], the target named is C481S mutant BTK [BTK(C481S)] (Homo sapiens (Human), UniProt Q06187, C481S). In words: C481S Mutant BTK Inhibitory Activity Test (mobility shift assay). In kind it is biochemical. As to conditions: for IC50: C481S mutant BTK, 100 μM ATP; for C481S mutation-resistance: IC50[BTK(C481S)]/IC50[BTK(WT)]. As to the method: (§1) The kinase activity was measured using QuickScout Screening Assist (trademark) MSA (commercially available kit manufactured by Carna Biosciences, Inc.) by mobility shift assay (MSA) method. The substrate of the kinase reaction was an FITC-labeled SRCtide peptide included in the kit. […] The 10 mM solution of the test compound in DMSO was further diluted with DMSO to 10 levels of the concentration (0.00003 mM, 0.0001 mM, 0.0003 mM, 0.001 mM, 0.003 mM, 0.01 mM, 0.03 mM, 0.1 mM, 0.3 mM, 1 mM), each of which was subjected to a 25-fold dilution with the assay buffer to obtain the drug solutions (4% DMSO solutions).
C481S mutant BTK [BTK(C481S)], sequence (Q06187 whole entry C481S): as the sequence (Q06187 whole entry) above, with C481S counted along it
(§2) 5 μL of the drug solution or a control solution (4% DMSO-assay buffer), 5 μL of the substrate mixture solution, and 10 μL of the enzyme solution were mixed in the wells of a polypropylene 384-well plate and allowed to react at room temperature for 1 hour, and then quenched by adding 60 μL of the termination buffer included in the kit. Subsequently, the quantities of the substrates (S) and the phosphorylated substrate (P) in the reaction solution were measured using LabChip EZ Reader II system (manufactured by Caliper Life Sciences) according to the protocol of the assay kit.
(§3) The heights of the peaks of the isolated substrate and the phosphorylated substrate were represented as S and P, respectively, and a blank which contained the assay buffer instead of the enzyme solution was also measured.
(§4) The inhibition rate (%) of the test compound was calculated according to the following equation; Inhibition rate (%)=(1−(C−A)/(B−A))×100 • wherein, A, B and C represent P/(P+S) of the blank well, P/(P+S) of the control well and P/(P+S) of the compound-containing well, respectively.
(§5) The IC50 value was calculated via a regression analysis of the inhibition rate (%) and the test compound concentration (logarithmic value).

For the next experiment, the system named is OCI-Ly10 cells. As to the kind of experiment: Proliferation-Inhibitory Test Against Diffuse Large-Cell B-Cell Lymphoma OCI-Ly10 Strain. Type of experiment: cell-based. The following applies: Homo sapiens, 96 hours, alamarBlue. The gist of the method: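 Proliferation was read by alamarBlue after a 96-hour incubation. Final compound concentrations spanned 0.9 nM to 30000 nM with 0.3% DMSO. Cells were seeded at 20000 per well in IMDM containing 20% fetal bovine serum under 5% CO2.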
A general note: The colour change of resazurin is a common sign of viable cells or microbes.

The next experiment has as its target wild type BTK [BTK(WT)] (Homo sapiens (Human), UniProt Q06187). In words: C481S Mutant BTK Inhibitory Activity Test, wild type BTK (mobility shift assay). Type of experiment: biochemical. As to conditions: 120 μM ATP. As to the method:
as §1, §2, §3, §4, §5

Molecules are shown by their SMILES.

wild type BTK [BTK(WT)], sequence (Q06187 whole entry): as the sequence (Q06187 whole entry) above
dephosphorylated BTK, sequence (Q06187 whole entry): as above

Take `COc1cccc(-c2nc3c(-c4cccc(-n5ccc6cc(C7CC7)cc(F)c6c5=O)c4CO)nc(N)nc3[nH]2)c1` [Example 18, 2-{3-[2-amino-8-(3-methoxyphenyl)-9H-purin-6-yl]-2-(hydroxymethyl)phenyl}-6-cyclopropyl-8-fluoroisoquinolin-1(2H)-one]: the inhibition at 0.03 µM on BTK is at least 90%. Also, the IC50 on dephosphorylated BTK was under 10 nM.

Consider `COc1ccccc1-c1cc2c(-c3cccc(-n4ccc5cc(C6CC6)cc(F)c5c4=O)c3CO)nc(N)nc2[nH]1` [Example 14, 2-{3-[2-amino-6-(2-methoxyphenyl)-7H-pyrrolo[2,3-d]pyrimidin-4-yl]-2-(hydroxymethyl)phenyl}-6-cyclopropyl-8-fluoroisoquinolin-1(2H)-one], for which the inhibition at 0.03 µM at BTK was in the range of 70 to 90%. Moreover, on dephosphorylated BTK, the IC50 was under 10 nM.

For the compound `Nc1nc(-c2cccc(-n3ccc4cc(C5CC5)cc(F)c4c3=O)c2CO)c2cc(-c3cccnc3)[nH]c2n1` [Example 17, 2-{3-[2-amino-6-(pyridin-3-yl)-7H-pyrrolo[2,3-d]pyrimidin-4-yl]-2-(hydroxymethyl)phenyl}-6-cyclopropyl-8-fluoroisoquinolin-1(2H)-one], at BTK, the inhibition at 0.03 µM was at least 90%. Moreover, the IC50 at dephosphorylated BTK was under 10 nM.

Take `COc1ccc(-c2cc3c(-c4cccc(-n5ccc6cc(C7CC7)cc(F)c6c5=O)c4CO)nc(N)nc3[nH]2)cc1` [Example 16, 2-{3-[2-amino-6-(4-methoxyphenyl)-7H-pyrrolo[2,3-d]pyrimidin-4-yl]-2-(hydroxymethyl)phenyl}-6-cyclopropyl-8-fluoroisoquinolin-1(2H)-one]: the inhibition at 0.03 µM at BTK was at least 90%. In addition, the IC50 on dephosphorylated BTK is under 10 nM.

For the compound `Nc1nc(-c2cccc(-n3ccc4cc(C5CC5)cc(F)c4c3=O)c2CO)c2cc(-c3ccccc3)[nH]c2n1` [Example 1, 2-[3-(2-amino-6-phenyl-7H-pyrrolo[2,3-d]pyrimidin-4-yl)-2-(hydroxymethyl)phenyl]-6-cyclopropyl-8-fluoroisoquinolin-1(2H)-one], the inhibition at 0.03 µM at BTK was at least 90%. In addition, on dephosphorylated BTK, the IC50 was under 10 nM.

In the case of `Nc1nc(-c2cccc(-n3ccc4cc(C5CC5)cc(F)c4c3=O)c2CO)c2cc(-c3cccc(F)n3)[nH]c2n1` [Example 42, 2-{3-[2-amino-6-(6-fluoropyridin-2-yl)-7H-pyrrolo[2,3-d]pyrimidin-4-yl]-2-(hydroxymethyl)phenyl}-6-cyclopropyl-8-fluoroisoquinolin-1(2H)-one], the IC50 was 1.06 nM in experiment [1], 97 nM in the experiment on OCI-Ly10 cells, 0.87 nM at wild type BTK [BTK(WT)] and under 10 nM at dephosphorylated BTK. Also, in experiment [1], the C481S mutation-resistance stood at 1.2.

`Nc1nc(-c2cccc(-n3ccc4cc(C5CC5)cc(F)c4c3=O)c2CO)c2cc(-c3ccnc(F)c3)[nH]c2n1` [Example 43, 2-{3-[2-amino-6-(2-fluoropyridin-4-yl)-7H-pyrrolo[2,3-d]pyrimidin-4-yl]-2-(hydroxymethyl)phenyl}-6-cyclopropyl-8-fluoroisoquinolin-1(2H)-one]: the IC50 is 1.72 nM in experiment [1], 194 nM in the experiment with OCI-Ly10 cells, 1.11 nM on wild type BTK [BTK(WT)] and under 10 nM on dephosphorylated BTK. The C481S mutation-resistance in experiment [1] is listed as 1.5.

With `CS(=O)(=O)c1ccc(-c2cc3c(-c4cccc(-n5ccc6cc(C7CC7)cc(F)c6c5=O)c4CO)nc(N)nc3[nH]2)cc1` [Example 41, 2-(3-{2-amino-6-[4-(methylsulfonyl)phenyl]-7H-pyrrolo[2,3-d]pyrimidin-4-yl}-2-(hydroxymethyl)phenyl)-6-cyclopropyl-8-fluoroisoquinolin-1(2H)-one], the IC50 is 1.03 nM in experiment [1], 17 nM with OCI-Ly10 cells, 0.73 nM at wild type BTK [BTK(WT)] and under 10 nM on dephosphorylated BTK. In experiment [1], the C481S mutation-resistance was determined as 1.4.

For the compound `CCC(=O)N1CC=C(c2cc3c(-c4cccc(-n5ccc6cc(C7CC7)cc(F)c6c5=O)c4CO)nc(N)nc3[nH]2)CC1` [Example 84, 2-{3-[2-amino-6-(1-propionyl-1,2,3,6-tetrahydropyridin-4-yl)-7H-pyrrolo[2,3-d]pyrimidin-4-yl]-2-(hydroxymethyl)phenyl}-6-cyclopropyl-8-fluoroisoquinolin-1(2H)-one], the IC50 amounted to 0.82 nM in experiment [1], 6 nM with OCI-Ly10 cells and 0.41 nM at wild type BTK [BTK(WT)]. The C481S mutation-resistance in experiment [1] is listed as 2.

For the compound `CCN1CC=C(c2cc3c(-c4cccc(-n5ccc6cc(C7CC7)cc(F)c6c5=O)c4CO)nc(N)nc3[nH]2)CC1` [Example 91, 2-{3-[2-amino-6-(1-ethyl-1,2,3,6-tetrahydropyridin-4-yl)-7H-pyrrolo[2,3-d]pyrimidin-4-yl]-2-(hydroxymethyl)phenyl}-6-cyclopropyl-8-fluoroisoquinolin-1(2H)-one], the IC50 in experiment [1] is 1.1 nM; in the experiment on OCI-Ly10 cells, 38 nM; on wild type BTK [BTK(WT)], 0.47 nM. For the same compound, the C481S mutation-resistance in experiment [1] is recorded as 2.1.

For `CCN(CC)Cc1ccc(-c2cc3c(-c4cccc(-n5ccc6cc(C7CC7)cc(F)c6c5=O)c4CO)nc(N)nc3[nH]2)cc1` [Example 52, 2-[3-(2-amino-6-{4-[(diethylamino)methyl]phenyl}-7H-pyrrolo[2,3-d]pyrimidin-4-yl)-2-(hydroxymethyl)phenyl]-6-cyclopropyl-8-fluoroisoquinolin-1(2H)-one], the IC50 in experiment [1] was determined as 0.76 nM; in the experiment with OCI-Ly10 cells, 15 nM; on wild type BTK [BTK(WT)], 0.43 nM. Besides, in experiment [1], the C481S mutation-resistance is given as 1.8.
